Measurements from patent US8921424B2, “Histone deacetylase inhibitors, process for preparation and uses thereof” (Zhejiang Hisun Pharmaceutical Co. Ltd., priority 2007, dated 2014).
pIC50: −log10 of the molar value. Like-named read-outs stand apart in the source and are kept apart here.

Experiments:
HDACs = test: In vitro HDACi assay (BIOMOL fluorescent-based HDAC activity assay); format: biochemical; conditions: for IC50: Table 3, read-out: IC50 (nM) HDACs; for pIC50: Table 4, read-out: HDAC enzyme inhibition activity IC50
Description: (§1) In Vitro HDACi Assay for Determination of IC50 Values
(§2) The assay has been carried out in white 96 well formats according to the BIOMOL's method. […] The reaction mixture was incubated at room temperature for 2 hours. Flur de lys Developer was added and the reaction was incubated for 10 min. Briefly, deacetylation of the substrate sensitizes to the developer, which then generates a fluorophore. The fluorophore is excited with 360 nm light and the emitted light (460 nm) is detected on a fluorometric plate reader (Molecular Device Ultra Microplate detection system, MD Group Ltd).
(§3) The analytical software, Prism 4.0 (GraphPad Software Inc) has been used to generate IC50 from a series of data.

HDAC6 = HDAC6 (Homo sapiens (Human), UniProt Q9UBN7); test: In vitro HDACi assay, HDAC6; format: biochemical
Description: as §1, §2, §3

Chain of HDAC6 (Q9UBN7 whole entry, species assumed): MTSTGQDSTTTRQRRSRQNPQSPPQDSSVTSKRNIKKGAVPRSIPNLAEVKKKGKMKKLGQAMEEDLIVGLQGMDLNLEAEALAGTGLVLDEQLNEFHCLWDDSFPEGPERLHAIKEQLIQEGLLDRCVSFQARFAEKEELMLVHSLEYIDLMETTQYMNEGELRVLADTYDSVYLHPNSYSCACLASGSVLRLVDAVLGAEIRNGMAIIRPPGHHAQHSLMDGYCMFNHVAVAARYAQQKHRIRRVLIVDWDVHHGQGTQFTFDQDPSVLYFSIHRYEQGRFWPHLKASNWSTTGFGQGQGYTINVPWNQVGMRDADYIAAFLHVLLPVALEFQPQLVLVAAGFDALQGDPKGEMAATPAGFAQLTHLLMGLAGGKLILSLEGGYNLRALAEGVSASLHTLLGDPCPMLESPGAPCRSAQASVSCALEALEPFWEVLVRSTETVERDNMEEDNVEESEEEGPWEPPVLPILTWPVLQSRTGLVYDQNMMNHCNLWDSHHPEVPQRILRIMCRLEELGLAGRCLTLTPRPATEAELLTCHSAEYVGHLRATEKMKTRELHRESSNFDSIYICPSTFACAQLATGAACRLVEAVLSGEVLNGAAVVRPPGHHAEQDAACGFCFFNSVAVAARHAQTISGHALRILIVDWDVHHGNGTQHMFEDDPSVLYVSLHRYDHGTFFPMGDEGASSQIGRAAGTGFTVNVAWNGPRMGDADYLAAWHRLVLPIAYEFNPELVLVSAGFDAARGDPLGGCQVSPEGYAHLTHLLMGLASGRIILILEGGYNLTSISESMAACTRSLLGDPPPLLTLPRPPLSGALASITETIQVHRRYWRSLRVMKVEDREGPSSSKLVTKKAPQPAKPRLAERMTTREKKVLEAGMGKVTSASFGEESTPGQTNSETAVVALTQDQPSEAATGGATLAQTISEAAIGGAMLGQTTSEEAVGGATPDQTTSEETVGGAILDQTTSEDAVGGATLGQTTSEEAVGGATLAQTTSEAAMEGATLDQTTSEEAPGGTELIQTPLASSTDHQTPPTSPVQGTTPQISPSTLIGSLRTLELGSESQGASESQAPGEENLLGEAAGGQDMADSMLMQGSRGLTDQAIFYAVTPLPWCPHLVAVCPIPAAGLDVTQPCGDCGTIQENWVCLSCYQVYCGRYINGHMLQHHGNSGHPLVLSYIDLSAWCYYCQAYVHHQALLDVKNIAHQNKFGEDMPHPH

| IC50 (HDACs) | pIC50 (HDACs) | pIC50 (HDAC6) | IC50 (HDAC6; Table 3, read-out: IC50 (nM) HDAC6) | Compound |
| --- | --- | --- | --- | --- |
| 18 nM | 4.74 | 6.31 | – | CCCCc1nc2cc(/C=C/C(=O)NO)ccc2n1CCN(CC)CC [SB939, reference compound] |
| 21 nM | 4.68 | – | 578 nM | CCCCCNc1cc(/C=C/C(=O)NO)ccc1SCCN(CC)CC [Example 2, 3-(4-(2-(diethylamino)ethylthio)-3-(pentylamino)phenyl)-N-hydroxy-acrylamide] |
